Source: ChEMBL document CHEMBL3865829 (Eur J Med Chem, 2016)

What was measured:
[1] = Cytotoxicity against human A549 cells after 72 hrs by MTT assay; assay type: functional, cell-based; conditions: A549, 72 h
[2] = Cytotoxicity against human U87MG cells after 72 hrs by MTT assay; assay type: functional, cell-based, U-87MG ATCC; conditions: U-87 MG
cells = conditions: Homo sapiens, HCT-116, 72 h
[3] = Cytotoxicity against human MDA-MB-231 cells after 72 hrs by MTT assay; assay type: functional, cell-based; conditions: MDA-MB-231, 72 h
[4] = Cytotoxicity against human HepG2 cells after 72 hrs by MTT assay; assay type: functional, cell-based; conditions: HepG2, 72 h

Row | Compound | IC50 (cells) [nM] | IC50 [1] [nM] | IC50 [2] [nM] | IC50 [3] [nM] | IC50 [4] [nM]
1 | COc1ncc(-c2ccc3nccc(-c4ccc(CN(CCO)CCO)cc4)c3c2)cc1NS(=O)(=O)c1ccc(F)cc1F | 3.8 | 2.8 | 143 |  | 
2 | COc1ncc(-c2ccc3nccc(Cl)c3c2)cc1NS(=O)(=O)c1ccc(F)cc1F | 6590 | 2940 | > 100000 |  | 
3 | COc1ncc(-c2ccc3nccc(-c4ccc(CN5CCN(C(C)C)CC5)cc4)c3c2)cc1NS(=O)(=O)c1ccc(F)cc1F | 24.7 | 1.9 | 468 |  | 
4 | COc1ncc(-c2ccc3nccc(-c4ccc(CN5CCCCC5)cc4)c3c2)cc1NS(=O)(=O)c1ccc(F)cc1F | 34.1 | 15.5 | 32 |  | 
5 | COc1ncc(-c2ccc3nccc(-c4ccc(CN5CCCC5)cc4)c3c2)cc1NS(=O)(=O)c1ccc(F)cc1F | 18.8 | 37.5 | 159 |  | 
6 | CCN(CC)Cc1ccc(-c2ccnc3ccc(-c4cnc(OC)c(NS(=O)(=O)c5ccc(F)cc5F)c4)cc23)cc1 | 5 | 22 to 22.1 | 4890 |  | 
7 | COc1ncc(-c2ccc3nccc(-c4ccc(CN5CCN(CCO)CC5)cc4)c3c2)cc1NS(=O)(=O)c1ccc(F)cc1F | 21.7 | 24.8 | 21.2 |  | 
8 | COc1ncc(-c2ccc3nccc(-c4ccc(CN5CCN(C)CC5)cc4)c3c2)cc1NS(=O)(=O)c1ccc(F)cc1F | 43.9 | 13.3 | 336 |  | 
9 | CCN(Cc1ccc(-c2ccnc3ccc(-c4cnc(OC)c(NS(=O)(=O)c5ccc(F)cc5F)c4)cc23)cc1)C1CCCCC1 | 222 | 20.2 | 1450 |  | 
10 | COc1ncc(-c2ccc3nccc(N4CCOCC4)c3c2)cc1NS(=O)(=O)c1ccc(F)cc1F | 4430 | 2400 | > 100000 |  | 
11 | COc1ncc(-c2ccc3nccc(-c4ccc(C)cc4)c3c2)cc1NS(=O)(=O)c1ccc(F)cc1F | 2540 | 1240 | 67000 |  | 
12 | COc1ncc(-c2ccc3nccc(N4CCCC4)c3c2)cc1NS(=O)(=O)c1ccc(F)cc1F | 3320 | 3410 | 6690 |  | 

Continued, in another order:

Row | IC50 (cells) [nM] | Compound | IC50 [1] [nM] | IC50 [2] [nM] | IC50 [3] [nM] | IC50 [4] [nM]
13 | 25 | COc1ncc(-c2ccc3nccc(-c4ccc(CN(C)CCO)cc4)c3c2)cc1NS(=O)(=O)c1ccc(F)cc1 | 22 |  | 210 | 1850
14 | 26 | COc1ncc(-c2ccc3nccc(-c4ccc(Cn5cncn5)cc4)c3c2)cc1NS(=O)(=O)c1ccc(F)cc1 | 33 |  | 283 | 12700
15 | 32.6 | COc1ncc(-c2ccc3nccc(-c4ccc(Cn5ccnc5)cc4)c3c2)cc1NS(=O)(=O)c1ccc(F)cc1F | 30.8 | 600 |  | 
16 | 36 | O=S(=O)(Nc1cc(-c2ccc3nccc(-c4ccc(Cn5cncn5)cc4)c3c2)cnc1Cl)c1ccc(F)cc1F | 642 |  | 340 | 2040
17 | 33 | O=S(=O)(Nc1cc(-c2ccc3nccc(-c4ccc(Cn5cncn5)cc4)c3c2)cnc1Cl)c1ccc(F)cc1 | 178 |  | 228 | 9600
18 | 24 | CN(C)Cc1ccc(-c2ccnc3ccc(-c4cnc(Cl)c(NS(=O)(=O)c5ccc(F)cc5F)c4)cc23)cc1 | 251 |  | 53 | 3860
19 | 24 | CN(CCO)Cc1ccc(-c2ccnc3ccc(-c4cnc(Cl)c(NS(=O)(=O)c5ccc(F)cc5)c4)cc23)cc1 | 15 |  | 260 | 1910
20 | 41 | O=S(=O)(Nc1cc(-c2ccc3nccc(-c4ccc(CN5CCOCC5)cc4)c3c2)cnc1Cl)c1ccc(F)cc1 | 53 |  | 2580 | 7740
21 | 14.2 | COc1ncc(-c2ccc3nccc(-c4ccc(Cn5ccnc5C)cc4)c3c2)cc1NS(=O)(=O)c1ccc(F)cc1F | 10.2 | 40 |  | 
22 | 53.1 | COc1ncc(-c2ccc3nccc(-c4ccc(Cn5cccn5)cc4)c3c2)cc1NS(=O)(=O)c1ccc(F)cc1F | 30.8 | 1600 |  | 
